Laboratory results from US20240034752A1, “ARTIFICIAL SHORT INTERFERING PEPTIDE FOR THE PHOSPHORYLATION SUBSTRATE OF DAPK1 AND ITS PHARMACEUTICAL APPLICATIONS” (priority 2021, published 2024).

How the values were obtained:
HT22 cells = experiment: Glutamate insult test in HT22 cells, MTT assay; format: cell-based, Mouse; details: for reduced HT22 cell death: 400 nM peptide; for reduced HT22 cell death / reduced cell death: 6 mM glutamate, 24 h, MTT
Procedure: The group with 0 nM RvTAT-PKD-S205 was as a control. Cell Death rate (%)=100%×(Control OD−treatment OD)/Control OD. Data were shown as mean t SEM, (n=3), *p<0.05, **p<0.01, One-Way ANOVA followed by Multiple Comparisons versus the group with 0 nM RvTAT-PKD-S205 (Bonferroni t-test).
After 24 hours following glutamate exposure, cell cytotoxicity was determined by the MTT assay. HT22 cells, without the presence of the test agents in culture medium, were exposed separately 42 of 59 to 6 mM Glutamate salt as a control. Cell Death (%)=100%×(Control OD−treatment OD)/Control OD. Data were shown as mean±SEM, (n=3) * p<0.05, **p<0.01, One-Way ANOVA followed by Multiple Comparisons versus Glutamate Control Group (Bonferroni t-test).
The cells of HT-22 Mouse Hippocampal neuronal cell line were cultured and maintained in DMEM 10% fetal bovine serum, 100 U/ml penicillin and 100 μg/ml streptomycin. Cells were maintained at a temperature of 37° C. in 5% CO2/95% air. During agent's treatments and experimentation, HT-22 cells were seeded in 96-well plates by 6×10^3 cells/well and cultured at 37° C. in a CO2 incubator for 24 h. Afterwards, For neuroprotection assays, HT22 cells were exposure to 6 mM glutamate by removing media and adding Neurobasal Medium with present of 2% B27 (B27 (B-27™ Plus Supplement (50×)) and various concentrations of test agents for further 24 hours at 37° C. in the CO2 incubator. Cell viability was assessed by MTT assay.
Cell viability was quantitatively measured by 3-[4,5-dimethylthiazol-2-yl]-2,5-diphenyltetrazolium bromide (MTT) assay.
Water-soluble yellow dye MTT reagent (final concentration 0.5 mg/ml) was added to each well and incubated at 37° C. After 4 hours, the incubate medium was removed and 100 μl of Dimethyl Sulfoxide (DMSO) was added. After 30 min extraction at room temperature, the absorbance of the formazan solution is determined spectrophotometrically at 570 nm. MTT absorbance data were converted to reflect proportional cell viability relative to both the untreated and treated controls, wherein the untreated control was considered as 100% viability.

[1] = test system: rat primary cortical neurons; experiment: Oxygen-glucose deprivation (OGD)/reperfusion in primary cortical neuronal cultures, MTT assay; format: cell-based, Sprague Dawley rat
Procedure: (§1) To induce OGD, EBSS containing 20 mM pH7.2 Sodium dithionite (Na2S2O4) solution with test agents were transiently exposed for 1.5 hrs, afterwards, for reperfusion, OGD culture medium was replaced with normal neurobasal media. The culture cells were further incubated for 20 hours, and cell cytotoxicity was assessed using the MTT assay. Non-OGD treated cell culture was as a control taken as 100% viability, Cell Death rate (%)=100%×(Control OD−treatment OD)/Control OD. Data were shown as mean±SEM, (n=3) * p<0.05, One-Way ANOVA followed by Multiple Comparisons versus OGD CTRL Group (Bonferroni t-test).
as §1, with “peptides” for “agents”, “show” for “shown”, “(n=3)) ** p<0.01, *** p<0.005;” for “(n=3) * p<0.05,”
Primary cultures of mixed cortical cell cultures containing both neurons and glia were prepared from embryonic day 15-18 Sprague Dawley rat as described previously [Wenxiang Fan, 50 of 59 Xiang Li, Liangliang Huang, Shucheng He, Zhicheng Xie, Yuxin Fu, Weirong Fang, Yunman Li S-oxiracetam ameliorates ischemic stroke induced neuronal apoptosis through up-regulating α7nAChR and PI3K/Akt/GSK3β signal pathway in rats Neurochemistry International Volume 115, May 2018, Pages 50-60 https://doi.org/10.1016/j.Neuint.2018.01.008]. […]
Oxygen glucose deprivation were performed according to a previously method [J. Huang, N. D. Kodithuwakku, W. He. […] Finally, Cell viability was determined by MTT assay (same as 1.2) […]

[2] = test system: transient middle cerebral artery occlusion/reperfusion (MCAO/R) stroke model; experiment: Rotarod motor performance after MCAO/R; format: in vivo, Sprague-Dawley rats; details: 3.5 mg/kg i.v. 4.5 h after ischemia onset; for Holding time on rod increase: vs untreated control group
[3] = test system: MDA content in hippocampus; experiment: Malondialdehyde (MDA) assay after tBCCAO/R; format: in vivo, C57BL/6 mice; details: 7 mg/kg i.v. 3 h after tBCCAO; 24 h reperfusion; vs saline
Procedure: (§2) C57BL/6 mice were subjected to two times 20 minutes bilateral common carotid arteries occlusion followed by reperfusion (tBCCAO/R) and treated with 7 mg/2 ml/kg RvTAT-PKD-S205 or some volume Saline via tail vein administered after 3 hours of the tBCCAO. After 24 hours of reperfusion, the ischemic mice were estimated by the Y maze Passive Avoidance task, as well as the MDA content in hippocampus and brain water content. […] FIG. 6C show the MDA content in hippocampus collected from Ischemic or sham mice after 24 hours of reperfusion subject to MDA ELISA assay. […] Data were shown as mean±SEM, (n=11 in each group), *p<0.05, **p<0.01 compared to Saline control group using Student t test. Animal treatments were randomized, and all procedures were performed blinded to treatment. […]
MDA is one of the important products of lipid peroxidation and the extent of lipid oxidation was determined by measuring MDA levels. […] The supernatants were collected after the lysates were centrifuged at 3,500 r/min for 10 min at 4° C., and MDA content was determined using MDA TCA kit (Nanjing Jiancheng Bioengineering Institute, Nanjing, China) following the manufacturer's protocol. The results were evaluated from the standard curve and calculated as nM/mg of tissue.

[4] = test system: transient bilateral common carotid artery occlusion (tBCCAO/R) global cerebral ischemia model; experiment: Brain edema (brain water content) after tBCCAO/R; format: in vivo, C57BL/6 mice; details: 7 mg/kg i.v. 3 h after tBCCAO; 24 h reperfusion; vs saline controls
Procedure: C57BL/6 mice were subjected to two times 20 minutes bilateral common carotid arteries occlusion followed by reperfusion (tBCCAO/R) and treated with 7 mg/2 ml/kg RvTAT-PKD-S205 or some volume Saline via tail vein administered after 3 hours of the tBCCAO. After 24 hours of reperfusion, the ischemic mice were estimated by the Y maze Passive Avoidance task, as well as the MDA content in hippocampus and brain water content. […] FIG. 6C show the MDA content in hippocampus collected from Ischemic or sham mice after 24 hours of reperfusion subject to MDA ELISA assay. […] Data were shown as mean±SEM, (n=11 in each group), *p<0.05, **p<0.01 compared to Saline control group using Student t test. Animal treatments were randomized, and all procedures were performed blinded to treatment.
Modeling: C57 […] male mice weighing 20-30 g (6-7 weeks old) were allowed free access to food and water and were housed under constant environmental conditions (a 12/12 h light/dark cycle). […]
Mice were assessed for brain edema by the dry/wet weight measurement after 24 hrs BCCAO/R. Wet weight was determined immediately after dissection of the brain, then the tissue was dried at 55° C. to a constant weight over 24 hours to determine the dry weight. The percentage of brain water content was calculated as (wet weight−dry weight)/wet weight*100.

[5] = test system: transient middle cerebral artery occlusion/reperfusion (MCAO/R) stroke model; experiment: Transient MCAO/R stroke model, infarct volume by TTC staining; format: in vivo, Sprague-Dawley rats; details: 3.5 mg/kg single i.v. bolus 4.5 h after ischemia onset; 90 min MCAO; TTC about 24 h; vs saline controls
[6] = test system: transient bilateral common carotid artery occlusion (tBCCAO/R) global cerebral ischemia model; experiment: Y-maze passive avoidance after tBCCAO/R; format: in vivo, C57BL/6 mice; details: 7 mg/kg i.v. 3 h after tBCCAO; tested 24 h after tBCCAO/R; vs untreated group
Procedure: as §2
The day before surgery, the researchers train the mice to avoid electric shocks caused by light sources, which can minimize the effects of odor. […] Learning and memory skill was quantified by Y maze passive avoidance task 24 hours after tBCCAO/R modeling (FIG. 6A).
After 24 hrs BCCAO/R mice were acclimatized to the testing room before conducting the Y-maze and allowed to familiarize themselves with the maze. […] A current stimulation of pre-determined intensity (0.05-0.8 mA) will be administered. […] The number to escape to the safe zone was recorded; any escapes to non-safe zones were regarded as erroneous. […]

Sequence: RRRQRRKKRGRKPERRRLKTTRL [RvTAT-ZIPK-T299, Fusion peptide: RvTAT at N-terminus of ZIPK-T299]
- reduced HT22 cell death (HT22 cells): about 33%
- reducing cortical neuronal death ([1]; 1000 nM peptide added 30 min before OGD, 20 h reperfusion, MTT): 12%

Sequence: RRRQRRKKRGQIAKRRRLSSLRA [RvTAT-rSP6-S235, Fusion peptide: RvTAT at N-terminus of rSP6-S235]
- reduced HT22 cell death (HT22 cells): about 29%

Sequence: RRRQRRKKRGSGVRRRRLSNVSL [RvTAT-PKD-S205, Fusion peptide: RvTAT cell penetrating peptide at N-terminus of PKD-S205]
- mean holding time, treated vs untreated ([2]; 3 days after tMCAO): no significant differences
- Holding time on rod increase ([2]; 5 days after tMCAO): 70%
- Holding time on rod increase ([2]; 7 days after tMCAO): 75%
- decrease in MDA level [3]: 55%
- brain water content reduced [4]: 8.5%
- reduced cell death (HT22 cells; 100 nM peptide): 11%
- reduced cell death (HT22 cells; 200 nM peptide): 22%
- reduced cell death (HT22 cells; 1600 nM peptide): 24%
- most effective concentration (HT22 cells; glutamate induced apoptosis model): 400 nM
- reducing neuronal death ([1]; 300 nM peptide added 30 min before OGD, 20 h reperfusion, MTT): 12%
- reduced the volume of total cerebral infarction [5]: approximately 60%
- increase in memory index (Y-maze passive avoidance) [6]: 30%

Sequence: RRRQRRKKRGNLSRRLKVTGDL [RvTAT-BECN1-T199, Fusion peptide: RvTAT at N-terminus of BECN1-T199]
- reduced HT22 cell death (HT22 cells): ~21%

Sequence: RRRQRRKKRGKKRPQRRYSNVP [RvTAT-opMLC-S20]
- reduced HT22 cell death (HT22 cells): ~25%
- survival of neurons ([1]; OGD model): did not significantly increase
